From US20130040882A1, “USE OF FIBROBLAST GROWTH FACTOR FRAGMENTS” (NOVARTIS AG, priority 2003, published 2013)
“And” between values parts separate entries of the source, which are not always exact repeats. Identical values can stand only once.

Experiments:
[1] = Salmon calcitonin/PTS893 monkey study: histopathology incl. osteonectin, osteopontin and osteocalcin staining of bone; type: in vivo, cynomolgus monkeys (Macaca fascicularis); conditions: females
Method: Animals were killed by deep anaesthesia induced by intravenous injection of Pentothal®, followed by exsanguinations. All relevant tissues were sampled for histopathology and gene expression profiling. The following tissue samples were processed for analysis: liver, kidney, pituitary, muscle, bone, duodenum, spleen and trachea. Samples for histopathology were fixed in phosphate-buffered 10% formalin. Bone demineralization was performed with 10% formic acid. Tissue samples were embedded in Paraplast® and sectioned at 4 microns, for staining with haematoxylin and eosin. […] All selected tissues for gene expression profiling were examined histopathologically.
Bone sections were stained for osteonectin, osteopontin and osteocalcin and were evaluated histopathologically. Histomorphometry of the bone tissue was performed regarding parameters for bone resorption and synthesis (osteoid formation).

[2] = Salmon calcitonin/PTS893 monkey study: in vivo examinations (mortality, food consumption, clinical observations, body weight); design: species or system cynomolgus monkeys (Macaca fascicularis)
Method: Solvent was used as vehicle for the control group.
The animals used in this analysis were cynomolgus monkeys (Macaca fascicularis), supplied by Centre de Recherches Primatologiques, Port Louis, Mauritius. Two animals were used per group and sex. […] Animals were examined daily for mortality, food consumption and clinical observations. Body weight was recorded once per week.
In vivo examinations. No significant histopathological changes were observed.

[3] = Salmon calcitonin/PTS893 monkey study: haematology; type: in vivo, cynomolgus monkeys (Macaca fascicularis);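 also: haematology parameters were measured in blood collected from a peripheral vein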
Method: Animals were fasted overnight before blood collection but had free access to water. Blood samples were taken from a peripheral vein. Standard haematology and clinical chemistry analysis were performed once during pretest and at the end of the treatment period. Blood samples were collected from each animal at the same intervals as described for the clinical chemistry investigations. The serum samples were deep-frozen (approximately −80° C.) until analyses for hormone determination.

[4] = Salmon calcitonin/PTS893 monkey study: urinalysis; conditions: urine
[5] = female monkeys, day 13 of dosing
[6] = female monkeys, day −8 relative to start of dosing
[7] = male monkeys, day −6 relative to start of dosing

In the case of CC(C)C[C@H](NC(=O)[C@H](CCCCN)NC(=O)CNC(=O)[C@H](CC(C)C)NC(=O)[C@@H](NC(=O)[C@@H]1CSSC[C@H](N)C(=O)N[C@@H](CO)C(=O)N[C@@H](CC(N)=O)C(=O)N[C@@H](CC(C)C)C(=O)N[C@@H](CO)C(=O)N[C@@H]([C@@H](C)O)C(=O)N1)C(C)C)C(=O)N[C@@H](CO)C(=O)N[C@@H](CCC(N)=O)C(=O)N[C@@H](CCC(=O)O)C(=O)N[C@@H](CC(C)C)C(=O)N[C@@H](Cc1c[nH]cn1)C(=O)N[C@@H](CCCCN)C(=O)N[C@@H](CC(C)C)C(=O)N[C@@H](CCC(N)=O)C(=O)N[C@H](C(=O)N[C@@H](Cc1ccc(O)cc1)C(=O)N1CCC[C@H]1C(=O)N[C@@H](CCCNC(=N)N)C(=O)N[C@H](C(=O)N[C@@H](CC(N)=O)C(=O)N[C@H](C(=O)NCC(=O)N[C@@H](CO)C(=O)NCC(=O)N[C@H](C(=O)N1CCC[C@H]1C(N)=O)[C@@H](C)O)[C@@H](C)O)[C@@H](C)O)[C@@H](C)O [salmon calcitonin], the “Inflammatory and regenerative changes in the kidneys” value [1] is reported as “slightly higher incidence”, the Food consumption ([2]; 50 μg/animal/day sc, two weeks) is reported as “decrease” and the Signs of toxicity ([2]; 50 μg/animal/day sc, two weeks) is reported as “no signs of toxicity”. For the same molecule, the “Food Consumption, Avg., Both animals” value ([2]; males, average of both animals of the group) was 72.9, the “Food Consumption, Avg.” value ([2]; males, average per individual animal) was 70.8 and 75.0 and the “Food Consumption, Day 1” value ([2]; males, day 1 of SC dosing, individual animals) was 75 and 50. For the same molecule, the “Food Consumption, Day 2” value ([2]; males, day 2 of SC dosing, individual animals) was 25, the “Food Consumption, Day 3” value ([2]; males, day 3 of SC dosing, individual animals) was 50 and 100 and the “Food Consumption, Day 4” value ([2]; males, day 4 of SC dosing, individual animals) was 100 and 75. For the same molecule, the “Food Consumption, Day 5” value ([2]; males, day 5 of SC dosing, individual animals) was 100, the “Food Consumption, Day 6” value ([2]; males, day 6 of SC dosing, individual animals) was 75 and the “Food Consumption, Day 7” value ([2]; males, day 7 of SC dosing, individual animals) was 100 and 75. For the same molecule, the “Food Consumption, Day 8” value ([2]; males, day 8 of SC dosing, individual animals) was 100 and 75, the “Food Consumption, Day 9” value ([2]; males, day 9 of SC dosing, individual animals) was 100 and the “Food Consumption, Day 10” value ([2]; males, day 10 of SC dosing, individual animals) was 100. The “Food Consumption, Day 11” value ([2]; males, day 11 of SC dosing, individual animals) was 75 and 100, the “Food Consumption, Day 12” value ([2]; males, day 12 of SC dosing, individual animals) was 75 and the “Food Consumption, Day 13” value ([2]; males, day 13 of SC dosing, individual animals) was 25. For the same molecule, the “Food Consumption, Day 14” value ([2]; males, day 14 of SC dosing, individual animals) was 75, the “Food Consumption, Day −1” value ([2]; males, day −1 (before dosing), individual animals) was 75 and the “Food Consumption, Day −2” value ([2]; males, day −2 (before dosing), individual animals) was 100. For the same molecule, the “Food Consumption, Day −3” value ([2]; males, day −3 (before dosing), individual animals) was 75, the “Food Consumption, Day −4” value ([2]; males, day −4 (before dosing), individual animals) was 50 and 75 and the “Food Consumption, Day −5” value ([2]; males, day −5 (before dosing), individual animals) was 75. The “Food Consumption, Day −6” value ([2]; males, day −6 (before dosing), individual animals) was 50, the “Haematology L” value ([3]; females, d7) was 4.61 pg/ml and 6.21 pg/ml and the “Haematology M” value ([3]; females, d7) was 0.63 nmol/l and 0.82 nmol/l. For the same molecule, the “Haematology MCH” value ([3]; females, d7) was 18.6 ng/ml and 19.4 ng/ml, the “Haematology MCHC” value ([3]; females, d7) was 29.0 pg/ml and 28.7 pg/ml and the “Haematology PCV” value ([3]; females, d7) was 0.40 mU/l and 0.44 mU/l. The “Haematology PLAT” value ([3]; females, d7) was 594 nmol/l and 356 nmol/l, the “Haematology RBC” value ([3]; females, d7) was 6.2 nmol/l and 6.6 nmol/l and the “Haematology M” value ([3]; females, d13) was 0.69 nmol/l and 0.39 nmol/l. The “Haematology MCH” value ([3]; females, d13) was 19.5 ng/ml, the “Haematology MCHC” value ([3]; females, d13) was 30.3 pg/ml and 29.9 pg/ml and the “Haematology N” value ([3]; females, d13) was 5.41 nmol/l and 6.16 nmol/l. For the same molecule, the “Haematology PCV” value ([3]; females, d13) was 0.33 mU/l and 0.37 mU/l, the “Haematology PLAT” value ([3]; females, d13) was 451 nmol/l and 229 nmol/l and the “Haematology RBC” value ([3]; females, d13) was 5.2 nmol/l and 5.7 nmol/l. The “Haematology E” value ([3]; females, d−8 (before dosing)) was 0.03 mUI/l, the “Haematology L” value ([3]; females, d−8 (before dosing)) was 3.26 pg/ml and 4.79 pg/ml and the “Haematology M” value ([3]; females, d−8 (before dosing)) was 0.25 nmol/l and 0.30 nmol/l. The “Haematology MCH” value ([3]; females, d−8 (before dosing)) was 19.1 ng/ml and 19.8 ng/ml, the “Haematology MCHC” value ([3]; females, d−8 (before dosing)) was 31.2 pg/ml and 30.6 pg/ml and the “Haematology N” value ([3]; females, d−8 (before dosing)) was 3.45 nmol/l and 3.13 nmol/l. The “Haematology PCV” value ([3]; females, d−8 (before dosing)) was 0.40 mU/l and 0.45 mU/l, the “Haematology PLAT” value ([3]; females, d−8 (before dosing)) was 549 nmol/l and 304 nmol/l and the “Haematology RBC” value ([3]; females, d−8 (before dosing)) was 6.5 nmol/l and 7.0 nmol/l. The “Haematology B” value ([3]; males, d7) was 0.04 G/l, the “Haematology E” value ([3]; males, d7) was 0.10 G/l and 0.09 G/l and the “Haematology HB” value ([3]; males, d7) was 11.7 g/dl and 11.5 g/dl. For the same molecule, the “Haematology L” value ([3]; males, d7) was 6.79 G/l and 5.57 G/l, the “Haematology M” value ([3]; males, d7) was 0.73 G/l and 0.45 G/l and the “Haematology MCH” value ([3]; males, d7) was 19.9 pg and 19.2 pg. The “Haematology MCHC” value ([3]; males, d7) was 30.3 g/dl and 31.3 g/dl, the “Haematology MCV” value ([3]; males, d7) was 66 fl and 62 fl and the “Haematology N” value ([3]; males, d7) was 4.11 G/l and 3.31 G/l. For the same molecule, the “Haematology PCV” value ([3]; males, d7) was 0.39 l/l and 0.37 l/l, the “Haematology PLAT” value ([3]; males, d7) was 396 G/l and 330 G/l and the “Haematology RBC” value ([3]; males, d7) was 5.9 T/l and 6.0 T/l. For the same molecule, the “Haematology WBC” value ([3]; males, d7) was 11.8 G/l and 9.5 G/l, the “Haematology B” value ([3]; males, d13) was 0.03 G/l and the “Haematology HB” value ([3]; males, d13) was 11.2 g/dl and 10.3 g/dl. The “Haematology L” value ([3]; males, d13) was 5.38 G/l and 4.92 G/l, the “Haematology M” value ([3]; males, d13) was 0.57 G/l and 0.76 G/l and the “Haematology MCH” value ([3]; males, d13) was 20.2 pg and 19.2 pg. For the same molecule, the “Haematology MCHC” value ([3]; males, d13) was 29.0 g/dl and 28.7 g/dl, the “Haematology MCV” value ([3]; males, d13) was 70 fl and 67 fl and the “Haematology N” value ([3]; males, d13) was 1.90 G/l and 3.04 G/l. For the same molecule, the “Haematology PCV” value ([3]; males, d13) was 0.39 l/l and 0.36 l/l, the “Haematology PLAT” value ([3]; males, d13) was 302 G/l and 389 G/l and the “Haematology RBC” value ([3]; males, d13) was 5.6 T/l and 5.4 T/l. For the same molecule, the “Haematology WBC” value ([3]; males, d13) was 8.0 G/l and 8.8 G/l, the “Haematology HB” value ([3]; males, d−6 (before dosing)) was 12.6 g/dl and 13.6 g/dl and the “Haematology L” value ([3]; males, d−6 (before dosing)) was 4.00 G/l and 6.55 G/l. For the same molecule, the “Haematology MCH” value ([3]; males, d−6 (before dosing)) was 20.2 pg and 19.7 pg, the “Haematology MCHC” value ([3]; males, d−6 (before dosing)) was 31.4 g/dl and 32.0 g/dl and the “Haematology MCV” value ([3]; males, d−6 (before dosing)) was 64 fl and 62 fl. The “Haematology N” value ([3]; males, d−6 (before dosing)) was 3.36 G/l and 3.93 G/l, the “Haematology PCV” value ([3]; males, d−6 (before dosing)) was 0.40 l/l and 0.43 l/l and the “Haematology PLAT” value ([3]; males, d−6 (before dosing)) was 351 G/l and 247 G/l. The “Haematology RBC” value ([3]; males, d−6 (before dosing)) was 6.3 T/l and 6.9 T/l, the “Haematology WBC” value ([3]; males, d−6 (before dosing)) was 7.7 G/l and 11.5 G/l and the CREAT [4, 5] was 4800 µmol/L and 4200 µmol/L. The “Ca2+” value [4, 5] was 17.55 mmol/L and 12.70 mmol/L, the “Cl−” value [4, 5] was 63 mmol/L and 65 mmol/L and the I.PHOS [4, 5] was 5.1 mmol/L and 5.8 mmol/L. For the same molecule, the “K+” value [4, 5] was 53 mmol/L and 57 mmol/L, the “Mg2+” value [4, 5] was 5.40 mmol/L and 4.85 mmol/L and the NAG [4, 5] was 2.8 IU/l and 2.7 IU/l. The “Na+” value [4, 5] was 40 mmol/L and 32 mmol/L, the VOLUME [4, 5] was 67 mL and 49 mL and the CREAT ([4]; female monkeys, day −7 relative to start of dosing) was 6920 µmol/L and 13380 µmol/L. For the same molecule, the CREAT [4, 6] was 10780 µmol/L and 11260 µmol/L, the “Ca2+” value [4, 6] was 3.00 mmol/L and 3.50 mmol/L and the “K+” value [4, 6] was 104 mmol/L and 172 mmol/L. For the same molecule, the “Mg2+” value [4, 6] was 3.35 mmol/L and 3.80 mmol/L, the “Na+” value [4, 6] was 98 mmol/L and 156 mmol/L and the CREAT ([4]; male monkeys, day 13 of dosing) was 4620 µmol/L and 4400 µmol/L. For the same molecule, the “Ca2+” value ([4]; male monkeys, day 13 of dosing) was 18.25 mmol/L and 23.40 mmol/L, the “Cl−” value ([4]; male monkeys, day 13 of dosing) was 55 mmol/L and 68 mmol/L and the I.PHOS ([4]; male monkeys, day 13 of dosing) was 2.50 mmol/L and 3.00 mmol/L. The “K+” value ([4]; male monkeys, day 13 of dosing) was 78 mmol/L and 76 mmol/L, the “Mg2+” value ([4]; male monkeys, day 13 of dosing) was 7.05 mmol/L and 9.80 mmol/L and the “Na+” value ([4]; male monkeys, day 13 of dosing) was 14 mmol/L and 15 mmol/L. The VOLUME ([4]; male monkeys, day 13 of dosing) was 68 mL and 54 mL, the I.PHOS [4, 7] was 4.35 mmol/L and 5.33 mmol/L and the LDH [4, 7] was 9.0 IU/L and 13.0 IU/L. For the same molecule, the NAG [4, 7] was 2.7 IU/l and 4.2 IU/l and the VOLUME [4, 7] was 62 mL and 37 mL.
